Results from ChEMBL document CHEMBL1201862, “PubChem BioAssay data set” (2004).
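Growth conditions: 96-well plates. Treatment: test compound, 48 hours, 5 concentrations. Analysis: linear interpolation between bracketing concentrations; unreached endpoints set to highest concentration. GI50 marks 50% less growth.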 Activity calls are given as the source filed them. Cut-off read from the data, not from the text of the source: active = GI50 up to about 1.1 µM and inactive = higher.

Legend:
Test in all cases: inhibition of tumour cell growth, NCI panel, 48 h
[1] = system: COLO 205
[2] = system: 786-0
[3] = system: DMS-273
[4] = system: BT-549
[5] = system: A498
[6] = system: RXF 393
[7] = system: SF-268
[8] = system: ACHN
[9] = system: A549
[10] = system: IGROV-1
[11] = system: NCI/ADR-RES
[12] = system: SF-295
[13] = system: KM-20L2
[14] = system: HOP-92
[15] = system: MDA-N
[16] = system: UACC-257
[17] = system: NCI-H522
[18] = system: SR
[19] = system: SNB-78
[20] = system: SK-MEL-2

Measured: GI50

COc1ccc2[nH]c3c(C)c4c(c(C)c3c2c1)CN(C)C=C4
inactive: [1] 1290 nM | [4] 1970 nM | [5] 1360 nM | [6] 7210 nM | [8] 13200 nM | [10] 1820 nM | [11] 91800 nM | [13] 2750 nM | [14] 2790 nM | [15] 15000 nM | [16] 2680 nM | [17] 1200 nM | [20] 2620 nM
active: [2] 191 nM | [3] 750 nM | [7] 175 nM | [9] 873 nM | [12] 293 nM | [18] 526 nM | [19] 432 nM
